ChEMBL document CHEMBL4420068, “Samhd1 modulation for treating resistance to cancer therapy” (2018)
Converted amounts (≈) assume the structure as drawn. The source made the active and inactive calls. The rule behind the calls is not given here.

How the values were obtained:
[1] = tested on: THP-1; experiment: Ratio of cytotoxic IC50 for human THP1 cells with constitutively expressing high SAMHD1 expression to cytotoxic IC50 for parental human THP1 cells expressing low SAMHD1 expression; format: functional
[2] = tested on: THP-1; experiment: Ratio of cytotoxic IC50 for human THP1 (+/+) cells expressing wild type SAMHD1 to cytotoxic IC50 for human THP1 cells with CRISP/CAS9 SAMHD1 knockout; format: functional
[3] = tested on: U-251; experiment: Cytotoxic activity against human U251MG cells assessed as reduction in cell viability incubated for 96 hrs by MTT assay; format: functional, cell-based; details: U-251, 96 h
[4] = tested on: HL-60; experiment: Cytotoxic activity against human HL60 cells assessed as reduction in cell viability at 10 to 50 ug/ml in presence of lentiviral protein X- virus-like particles incubated for 96 hrs by MTT assay; format: functional, cell-based
[5] = tested on: HEL; experiment: Cytotoxic activity against human HEL cells assessed as reduction in cell viability at 10 to 50 ug/ml in presence of lentiviral protein X- virus-like particles incubated for 96 hrs by MTT assay; format: functional, cell-based
[6] = target: Deoxynucleoside triphosphate triphosphohydrolase SAMHD1 (Homo sapiens) (UniProt Q9Y3Z3); experiment: Substrate activity at SAMHD1 (unknown origin) expressed in bacterial system expressed in bacteria assessed as triphospho-hydolase activity by measuring cytarabine tri-phosphate […]
[7] = tested on: MOLM-13; experiment: Cytotoxic activity against human MOLM13 cells assessed as reduction in cell viability at 10 to 50 ug/ml in presence of lentiviral protein X- virus-like particles incubated for 96 hrs by MTT assay; format: functional, cell-based

Sequence of Deoxynucleoside triphosphate triphosphohydrolase SAMHD1 (Homo sapiens) (Q9Y3Z3 whole entry): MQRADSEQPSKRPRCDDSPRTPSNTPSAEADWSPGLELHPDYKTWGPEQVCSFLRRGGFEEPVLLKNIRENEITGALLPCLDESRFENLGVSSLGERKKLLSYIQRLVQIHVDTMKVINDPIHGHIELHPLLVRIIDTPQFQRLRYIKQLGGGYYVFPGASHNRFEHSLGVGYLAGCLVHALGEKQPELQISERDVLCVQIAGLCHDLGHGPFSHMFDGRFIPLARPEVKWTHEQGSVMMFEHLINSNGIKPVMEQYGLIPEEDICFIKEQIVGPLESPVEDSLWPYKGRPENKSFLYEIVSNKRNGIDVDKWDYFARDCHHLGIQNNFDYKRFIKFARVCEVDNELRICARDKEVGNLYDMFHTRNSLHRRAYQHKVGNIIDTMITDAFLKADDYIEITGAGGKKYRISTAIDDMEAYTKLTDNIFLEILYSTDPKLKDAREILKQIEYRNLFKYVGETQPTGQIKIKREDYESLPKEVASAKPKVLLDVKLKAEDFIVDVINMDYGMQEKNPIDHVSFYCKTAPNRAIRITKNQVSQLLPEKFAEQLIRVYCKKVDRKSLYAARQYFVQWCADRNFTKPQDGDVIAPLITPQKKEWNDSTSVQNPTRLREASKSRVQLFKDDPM

Question: For `Nc1nc(Cl)nc2c1ncn2[C@H]1C[C@H](O)[C@@H](CO)O1` [CLADRIBINE], which “Ratio IC50” value [1] is on record?
Answer: 2

Question: And the “Ratio IC50” value [2]?
Answer: 1

Question: With `Nc1nc(Cl)nc2c1ncn2[C@@H]1O[C@H](CO)[C@@H](O)[C@@H]1F` [CLOFARABINE] as the molecule, how does the “Ratio IC50” value [1] read?
Answer: 11

Question: Which results are given for `Nc1ccn([C@@H]2O[C@H](CO)[C@@H](O)[C@@H]2O)c(=O)n1` [CYTARABINE]?
Answer: IC50 [3]: 0.022 µg/mL (≈ 0.0905 µM); Activity [4]: Active; Activity [5]: Active; Activity [6]: Active; Activity [7]: Active

Question: What does the source list for `COc1cccc2c1C(=O)c1c(O)c3c(c(O)c1C2=O)C[C@@](O)(C(C)=O)C[C@@H]3O[C@H]1C[C@H](N)[C@H](O)[C@H](C)O1` [DAUNORUBICIN]?
Answer: Ratio IC50 [1]: 1; Ratio IC50 [2]: 1

Question: For `Nc1ncn([C@H]2C[C@H](O)[C@@H](CO)O2)c(=O)n1` [DECITABINE], which “Ratio IC50” value [1] is on record?
Answer: 6

Question: What about the “Ratio IC50” value [2] of the same molecule?
Answer: 9

Question: With `Nc1nc(F)nc2c1ncn2[C@@H]1O[C@H](CO)[C@@H](O)[C@@H]1O` [FLUDARABINE] as the molecule, how does the “Ratio IC50” value [1] read?
Answer: 6

Question: How did the “Ratio IC50” value [1] turn out when `Nc1ccn([C@@H]2O[C@H](CO)[C@@H](O)C2(F)F)c(=O)n1` [GEMCITABINE] was run?
Answer: 0.5

Question: And the “Ratio IC50” value [2]?
Answer: 1

Question: With `COc1nc(N)nc2c1ncn2[C@@H]1O[C@H](CO)[C@@H](O)[C@@H]1O` [NELARABINE] as the molecule, how does the “Ratio IC50” value [1] read?
Answer: 4

Question: What does the source list for `NC(=O)c1ncn([C@@H]2O[C@H](CO)[C@@H](O)[C@H]2O)n1` [RIBAVIRIN]?
Answer: Ratio IC50 [1]: 0.5; Ratio IC50 [2]: 0.5

Question: How did the “Ratio IC50” value [1] turn out when `Nc1nc2[nH]cnc2c(=S)[nH]1` [THIOGUANINE] was run?
Answer: 1

Question: What about the Activity [6] of the same molecule?
Answer: Active

Question: What about the “Ratio IC50” value [2] of the same molecule?
Answer: 1
